How the values were obtained:
Experiment in all cases: relative viability (nuclei count vs DMSO), 5 days (fraction); higher = more cells survive
[1] = compound: C1CN(CCN1)C2=CC=C(C=C2)C3=CN4C(=C(C=N4)C5=CC=NC6=CC=CC=C56)N=C3 [DM3189] + CC(=O)Nc1cccc(-n2c(=O)n(C3CC3)c(=O)c3c(Nc4ccc(I)cc4F)n(C)c(=O)c(C)c32)c1 [Trametinib] (partner 0.02 µM)
Procedure, shortened: (§1)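 Lung cancer cell lines were seeded in 1536-well plates and dosed by pin tool the next day, with either a single drug or a fixed anchor-drug dose combined with five library-drug doses (not always all listed) spaced in √10 steps. Five days later, one step fixed the cells and stained their nuclei (final 0.05% Triton X-100, 1% formaldehyde, 1 ug/ml Hoechst), and nuclei were counted on 4× images. Relative viability is the nuclei count in treated wells divided by the count in vehicle wells, and each value is the median of duplicate plates.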

[2] = compound: C1CN(CCN1)C2=CC=C(C=C2)C3=CN4C(=C(C=N4)C5=CC=NC6=CC=CC=C56)N=C3 [DM3189] + C[C@]1(O)C[C@@H](c2nc(-c3ccc4ccc(-c5ccccc5)nc4c3)c3c(N)nccn32)C1 [Linsitinib] (partner 1 µM)
Procedure, shortened: as §1

[3] = compound: C1CN(CCN1)C2=CC=C(C=C2)C3=CN4C(=C(C=N4)C5=CC=NC6=CC=CC=C56)N=C3 [DM3189] + Nc1nc2[nH]cc(CCc3ccc(C(=O)N[C@@H](CCC(=O)O)C(=O)O)cc3)c2c(=O)[nH]1 [Pemetrexed] (partner 0.2 µM)
Procedure, shortened: as §1

[4] = compound: C1CN(CCN1)C2=CC=C(C=C2)C3=CN4C(=C(C=N4)C5=CC=NC6=CC=CC=C56)N=C3 [DM3189] + C[C@@H](Oc1cc(-c2cnn(C3CCNCC3)c2)cnc1N)c1c(Cl)ccc(F)c1Cl [Crizotinib] (partner 1 µM)
Procedure, shortened: as §1

[5] = compound: C1CN(CCN1)C2=CC=C(C=C2)C3=CN4C(=C(C=N4)C5=CC=NC6=CC=CC=C56)N=C3 [DM3189] + O=C(c1cc(Cc2n[nH]c(=O)c3ccccc23)ccc1F)N1CCN(C(=O)C2CC2)CC1 [Olaparib] (partner 8 µM)
Procedure, shortened: as §1

Cell Line | relative viability ([1]; first compound 0.08 µM) | relative viability ([1]; first compound 0.253 µM) | relative viability ([1]; first compound 0.8 µM) | relative viability ([1]; first compound 2.53 µM) | relative viability ([2]; first compound 0.08 µM) | relative viability ([2]; first compound 0.253 µM) | relative viability ([2]; first compound 0.8 µM) | relative viability ([2]; first compound 2.53 µM) | relative viability ([3]; first compound 0.08 µM) | relative viability ([3]; first compound 0.253 µM) | relative viability ([3]; first compound 0.8 µM) | relative viability ([3]; first compound 2.53 µM) | relative viability ([4]; first compound 0.08 µM) | relative viability ([4]; first compound 0.253 µM) | relative viability ([4]; first compound 0.8 µM) | relative viability ([4]; first compound 2.53 µM) | relative viability ([5]; first compound 0.08 µM) | relative viability ([5]; first compound 0.253 µM) | relative viability ([5]; first compound 0.8 µM) | relative viability ([5]; first compound 2.53 µM)
HCC-366 | 0.414 | 0.362 | 0.352 | 0.432 | 0.641 | 0.538 | 0.55 | 0.649 | 0.139 | 0.166 | 0.116 | 0.149 | 0.475 | 0.574 | 0.372 | 0.771 | 0.312 | 0.325 | 0.311 | 0.416
HCC-827 | 0.492 | 0.535 | 0.502 | 0.54 | 0.982 | 0.863 | 0.888 | 0.938 | 0.279 | 0.244 | 0.249 | 0.275 | 0.896 | 0.89 | 0.866 | 0.896 | 0.665 | 0.573 | 0.511 | 0.698
HOP-62 | 0.421 | 0.509 | 0.475 | 0.51 | 1.05 | 0.901 | 0.98 | 1.03 | 0.32 | 0.296 | 0.295 | 0.346 | 1 | 0.866 | 0.939 | 0.75 | 0.347 | 0.547 | 0.167 | 0.404
IA-LM | – | – | – | – | 0.699 | 0.682 | 0.51 | 0.901 | – | – | – | – | 0.857 | – | 1.01 | 1.11 | 0.999 | 1.02 | 0.821 | 1.2
LC-2-ad | 0.938 | 0.901 | 0.875 | 0.919 | 0.858 | 0.847 | 0.819 | 0.855 | 0.259 | 0.253 | 0.257 | 0.276 | 0.419 | 0.458 | 0.382 | 0.378 | 0.713 | 0.66 | 0.652 | 0.747
LCLC-97TM1 | 0.211 | 0.198 | 0.205 | 0.216 | 0.162 | 0.188 | 0.145 | 0.181 | 0.182 | 0.17 | 0.136 | 0.167 | 0.304 | 0.249 | 0.297 | 0.313 | 0.415 | 0.314 | 0.281 | 0.397
LCLC-103H | 0.748 | 0.653 | 0.685 | 0.681 | 1.1 | 1.07 | 1.05 | 1.17 | 0.514 | 0.407 | 0.431 | 0.469 | 1.01 | 1.01 | 0.963 | 1.05 | 0.78 | 0.713 | 0.736 | 0.75
LK-2 | 0.586 | 0.511 | 0.638 | 0.497 | 0.406 | 0.321 | 0.447 | 0.189 | 0.283 | 0.198 | 0.197 | 0.183 | 0.234 | 0.241 | 0.22 | 0.214 | 0.626 | 0.613 | 0.388 | 0.489
LOU-NH91 | 0.846 | 0.793 | 0.685 | 0.765 | 0.901 | 0.956 | 0.802 | 0.923 | 0.375 | 0.407 | 0.331 | 0.368 | 0.754 | 0.709 | 0.718 | 0.727 | 0.921 | 0.896 | 0.76 | 0.92
LU99A | 0.661 | 0.533 | – | 0.634 | 0.49 | 0.49 | – | 0.445 | 0.185 | 0.233 | – | 0.161 | 0.573 | 0.527 | – | 0.509 | 0.296 | 0.274 | – | 0.264
LXF-289 | 0.74 | 0.686 | 0.692 | 0.694 | 0.977 | 0.939 | 0.908 | 1.06 | 0.932 | 0.986 | 0.897 | 0.917 | 0.796 | 0.793 | 0.781 | 0.947 | 1.08 | 1.06 | 1.06 | 1.11
NCI-H522 | 0.777 | 0.777 | 0.656 | 0.747 | – | – | – | – | 0.992 | 0.898 | 0.767 | 0.873 | – | – | – | – | 0.663 | 0.651 | 0.607 | 0.709
NCI-H727 | 0.416 | 0.433 | 0.445 | 0.47 | 0.255 | 0.326 | – | 0.259 | – | – | – | – | 0.889 | 0.821 | – | 0.737 | 0.696 | 0.69 | 0.649 | 0.764
NCI-H1395 | 0.902 | 1.03 | – | 1.01 | 0.979 | 1.05 | 0.695 | 1.03 | 1.13 | 0.786 | – | 0.806 | – | – | – | – | 0.421 | 0.463 | – | 0.39
NCI-H1650 | 0.749 | 0.608 | 0.677 | 0.738 | – | – | – | – | 0.311 | 0.347 | 0.351 | 0.37 | 0.896 | 0.851 | 1.15 | 0.717 | 0.801 | 0.712 | 0.738 | 0.838
NCI-H1703 | – | – | – | – | 0.597 | 0.635 | 0.575 | 0.693 | – | – | – | – | 0.763 | 0.747 | 0.524 | 0.548 | 0.397 | 0.466 | 0.429 | 0.446
NCI-H1793 | 0.507 | 0.603 | 0.532 | 0.742 | 1.09 | 0.997 | 0.937 | 1.21 | 1.03 | 1.18 | 1.1 | 1.47 | – | – | – | – | 0.998 | 0.943 | 0.702 | 1.15
NCI-H2170 | 1.09 | 0.96 | 0.835 | 0.825 | – | – | – | – | 0.282 | 0.276 | 0.373 | 0.248 | 1.31 | 1.27 | 1.24 | 1.09 | 0.607 | 0.69 | 0.534 | 0.469
SW 900 | 0.818 | – | 0.832 | 0.941 | – | – | – | – | 0.505 | – | 0.44 | 0.581 | – | – | – | – | 0.801 | – | 0.886 | 0.897

Source: the supplement of paper PMC10307832
